According to patent publication US8633238B2, “Lactams and uses thereof” (Joben Bio-Medical Co., Ltd., priority 2012, dated 2014):

Columns and labels:
Format in all cases: cell-based, human
Conditions in all cases: 50 μM, 24 h
[1] = tested on: MCF-7 cells; experiment: MTT antiproliferation assay, MCF-7 cells
Protocol: (§1) Cell Lines and Culture. MCF-7, T-47D, and H184B5F5/M10 cells were cultured with 5% CO2 atmosphere at 37° C.; MDA-MB-231 cells were cultured without CO2 at 37° C. The MCF-7 cells were cultured in MEM containing 10% heat-inactivated FBS, 100 units/mL penicillin, 100 μg/mL streptomycin, and 1 mM sodium pyruvate. The T-47D cells were maintained in RPMI-1640 medium containing 10% heat inactivated FBS, 100 units/mL penicillin, and 100 μg/mL streptomycin. […]
(§2) Assay for Antiproliferation. To determine the antiproliferative effect, MCF-7, T-47D, MDA-MB-231, or H184B5F5/M10 cells were assessed using the MTT assay as previously reported (Ho, C. Y.; Kim, C, F.; Leung, K. N.; Fung, K. P.; Tse, T. F.; Chan, H.; Lau, C. B. Differential anti-tumor activity of Coriolus versicolor (Yunzhi) extract through p53- and/or Bcl-2-dependent apoptotic pathway in human breast cancer cells. Cancer Biol. Ther. 2005, 4, e11-e17). […] The absorbance at 570 nm was measured, and the viability of cells was calculated using the following equation: relative cell number (%)=(average absorbance of treated wells)×100/(average absorbance of blank vehicle wells).

[2] = tested on: MDA-MB-231 cells; experiment: MTT antiproliferation assay, MDA-MB-231 cells
Protocol: as §1, §2

[3] = tested on: T-47D cells; experiment: MTT antiproliferation assay, T-47D cells
Protocol: as §1, §2

Row | Substance | percentage of inhibition [1] | percentage of inhibition [2] | percentage of inhibition [3]
1 | coixspirolactam D [compound 1] | 30.2% | 47.4% | 
2 | coixspirolactam E [compound 2] |  | 25.3% | 20.7%
